Some test systems named below: Alternaria alternata; Botrytis cinerea; Cladosporium herbarum; Bacillus subtilis 168; Candida albicans SC5314; Candida krusei ATCC 6258; Escherichia coli BL21; Escherichia coli ESBL; Staphylococcus aureus.
Common to all, as to experiment: ≥ marks a high value that may be exact or a test limit, other limits are often not marked, values filed in µg/mL are converted to µM
For experiment [1], the system named is Clavibacter michiganensis subsp. michiganensis DSM 46294.
Experiment [2] has as its system Pectobacterium carotovorum subsp. carotovorum DSM 30168.
Experiment [3] relates to Pseudomonas corrugata DSM 7228.
The test system of experiment [4] is Pseudomonas syringae pv. syringae DSM 10604.
Experiment [5] has as its system Pseudomonas syringae pv. tomato DC3000.
In experiment [6] the test system is Staphylococcus aureus 90857.
The test system of experiment [7] is Xanthomonas vesicatoria DSM 50861.
Experiment [8] has as its system Cronobacter sakazakii DPC 6440.
Experiment [9] deals with Listeria monocytogenes LO28.
Experiment [10] relates to Bacillus subtilis KCTC 3038.
Experiment [11] has as its system Candida albicans ATCC 10231.
Experiment [12] concerns Cryptococcus neoformans ATCC 34881.
In experiment [13] the test system is Enterococcus faecalis ATCC 29212.
Experiment [14] relates to Escherichia coli ATCC 27325.
Experiment [15] concerns Micrococcus luteus ATCC 10240.
For experiment [16], the system named is Pseudomonas aeruginosa ATCC 27853.
Experiment [17] concerns Saccharomyces cerevisiae ATCC 44774.
Experiment [18] deals with Salmonella typhimurium KCTC 2370.
Experiment [19] concerns Staphylococcus aureus ATCC 15752.
The test system of experiment [20] is Aspergillus niger CECT 2694.
Experiment [21] concerns Fusarium oxysporum f. sp. lycopersici ATCC 201829.
Experiment [22] deals with Penicillium expansum EPS 26.
Experiment [23] deals with Rhizopus stolonifer CECT 2344.
Experiment [24] deals with Bacillus subtilis KCTC 1918.
For experiment [25], the system named is Candida albicans TIMM 1768.
Experiment [26] concerns Pseudomonas aeruginosa KCTC 1637.
Experiment [27] has as its system Saccharomyces cerevisiae KCTC 7296.
Experiment [28] concerns Salmonella typhimurium KCTC 1926.
Experiment [29] concerns Staphylococcus epidermidis KCTC 3096.
For experiment [30], the system named is Trichosporon beigelii KCTC 7707.
Experiment [31] deals with Candida parapsilosis ATCC 22019.
Experiment [32] concerns Candida tropicalis ATCC 750.
Experiment [33] relates to Cryptococcus neoformans ATCC 208821.

The values that follow come from DBAASP.

The structures appear in SMILES notation. ≈ marks a conversion by molar mass, not a printed value.

In general, MIC refers to the smallest concentration in the dilution series that meets the test's criterion for growth inhibition. A high value points to weaker potency. On to `CC(C)C[C@H](NC(=O)[C@H](CC(C)C)NC(=O)[C@H](CCCCN)NC(=O)[C@@H](NC(=O)[C@H](CCCN=C(N)N)NC(=O)[C@H](CCCCN)NC(=O)[C@H](CCCCN)NC(=O)[C@@H](N)CCCN=C(N)N)C(C)C)C(=O)N[C@@H](CCCCN)C(=O)N[C@@H](CCCN=C(N)N)C(=O)N[C@@H](CC(C)C)C(=O)N[C@H](C(N)=O)C(C)C` [RKKRVKLLKRLV], for which the MIC in [1] was 6.51 µM (≈ 9.99 µg/mL); in experiment [2] it was 6.51 µM (≈ 9.99 µg/mL); in experiment [3], 0.325 µM (≈ 0.5 µg/mL); in experiment [4] it was 1.63 µM (≈ 2.5 µg/mL); in experiment [5] it was 3.25 µM (≈ 5 µg/mL); in experiment [6], not below 62.5 µM. The MIC in [7] is 3.25 µM (≈ 5 µg/mL).

Take `CC[C@H](C)[C@H](NC(=O)[C@@H](N)Cc1c[nH]c2ccccc12)C(=O)N[C@@H](CCC(N)=O)C(=O)N1CCC[C@H]1C(=O)N[C@@H](CCCCN)C(=O)N[C@H](C(=O)N[C@@H](CCCCN)C(=O)N[C@H](C(=O)N[C@H](C(=O)N1CCC[C@H]1C(=O)N[C@@H](C)C(=O)N[C@H](C(=O)N[C@@H](CCCN=C(N)N)C(=O)N[C@@H](Cc1ccc(O)cc1)C(=O)N[C@@H](CC(C)C)C(=O)O)C(C)C)[C@@H](C)CC)C(C)C)[C@@H](C)O` [WIQPKTKVIPAVRYL]: the MIC in experiment [8] is not below 78.1 µM; in [9] it was not below 39.1 µM.

For `CC(C)[C@H](NC(=O)CNC(=O)[C@H](CCC(N)=O)NC(=O)[C@@H](NC(=O)[C@@H](NC(=O)[C@@H]1CCCN1C(=O)[C@H](CCCN=C(N)N)NC(=O)[C@@H](NC(=O)CNC(=O)[C@@H](N)CCCN=C(N)N)C(C)C)C(C)C)C(C)C)C(=O)N[C@@H](CCCCN)C(=O)N[C@@H](CCC(=O)O)C(=O)N[C@@H](CCCCN)C(=O)N[C@H](C(=O)N[C@@H](CCCN=C(N)N)C(=O)O)C(C)C` [RGVRPVVQGVKEKVR], the MIC in experiment [10] is not below 37.5 µM; in experiment [11], more than 37.5 µM; in experiment [12], not below 37.5 µM; in [13] it was more than 37.5 µM; in [14], not below 37.5 µM; in [15] it was not below 37.5 µM. Further, the MIC in experiment [16] was more than 37.5 µM; in [17] it was not below 37.5 µM; in [18] it was not below 37.5 µM; in [19], not below 37.5 µM.

As for `CC[C@H](C)[C@H](NC(=O)[C@H](CCCCN)NC(=O)[C@H](CCCCN)NC(=O)[C@H](Cc1ccccc1)NC(=O)[C@H](CC(C)C)NC(=O)[C@H](CCCCN)NC(=O)[C@@H](N)CCCCN)C(=O)N[C@@H](CC(C)C)C(=O)N[C@@H](CCCCN)C(=O)N[C@@H](CCCCN)C(=O)N[C@@H](CC(C)C)C(N)=O` [KKLFKKILKKL], the MIC was 22.4 µM (≈ 31 µg/mL) in experiment [20], 0.849 µM (≈ 1.18 µg/mL) in experiment [21], not below 100 µM in [22] and not below 70.7 µM in experiment [23].

On to `CC[C@H](C)[C@H](NC(=O)[C@@H](NC(=O)CNC(=O)[C@H](C)NC(=O)[C@H](CCSC)NC(=O)[C@@H](NC(=O)CNC(=O)[C@H](Cc1ccccc1)NC(=O)[C@@H](NC(=O)[C@H](CC(C)C)NC(=O)[C@@H](NC(=O)[C@H](CC(C)C)NC(=O)[C@H](CCCCN)NC(=O)[C@H](CCCN=C(N)N)NC(=O)[C@@H](N)CCCCN)[C@@H](C)O)C(C)C)C(C)C)C(C)C)C(=O)NCC(=O)N[C@H](C(=O)N[C@@H](CCCCN)C(=O)N[C@@H](CCCCN)C(=O)N[C@@H](CCCN=C(N)N)C(N)=O)[C@@H](C)O` [KRKLTLVFGVMAGVIGTKKR], for which the MIC against Alternaria alternata is not below 45.4 µM; in the experiment with Botrytis cinerea, not below 45.4 µM; against Cladosporium herbarum, not below 45.4 µM; in [1], 9.08 µM (≈ 20 µg/mL); in [2], 18.2 µM (≈ 40 µg/mL); in experiment [3], 18.2 µM (≈ 40 µg/mL). In addition, the MIC in [4], in experiment [5] and in experiment [7] was 18.2 µM (≈ 40 µg/mL) each time.

On to `CC(C)C[C@H](NC(=O)[C@H](CC(C)C)NC(=O)[C@H](CCCCN)NC(=O)[C@H](CCCCN)NC(=O)[C@H](CC(C)C)NC(=O)[C@H](CC(C)C)NC(=O)[C@H](CCCCN)NC(=O)[C@H](CCCCN)NC(=O)[C@H](CC(C)C)NC(=O)[C@H](C)NC(=O)[C@H](CCCCN)NC(=O)[C@H](CC(C)C)NC(=O)[C@@H](N)CC(C)C)C(N)=O` [LLKALKKLLKKLL], for which the MIC in the experiment on Alternaria alternata was not below 65.7 µM; against Botrytis cinerea, not below 65.7 µM; in the experiment on Cladosporium herbarum, 26.3 µM (≈ 40 µg/mL); in experiment [1] it was 6.57 µM (≈ 9.99 µg/mL); in experiment [2], 26.3 µM (≈ 40 µg/mL); in experiment [3], 26.3 µM (≈ 40 µg/mL). For the same compound, the MIC in experiment [4] is 6.57 µM (≈ 9.99 µg/mL); in [5] it was 6.57 µM (≈ 9.99 µg/mL); in [6], 1.5 µM (≈ 2.28 µg/mL); in experiment [7], 3.29 µM (≈ 5 µg/mL).

Turning to `CC(C)C[C@H](NC(=O)[C@H](CCCCN)NC(=O)[C@H](CC(C)C)NC(=O)[C@H](CCCCN)NC(=O)[C@H](CC(C)C)NC(=O)[C@@H]1CCCN1C(=O)[C@H](CCCCN)NC(=O)[C@H](CCCCN)NC(=O)[C@H](CC(C)C)NC(=O)[C@H](CC(C)C)NC(=O)[C@@H](N)CCCCN)C(N)=O` [KLLKKPLKLKL], the MIC in experiment [24] was 12.5 µM (≈ 16.5 µg/mL); in experiment [25], 25 µM (≈ 33 µg/mL); in experiment [26] it was 6.3 µM (≈ 8.32 µg/mL); in experiment [27], 25 µM (≈ 33 µg/mL); in experiment [28] it was 0.8 µM (≈ 1.06 µg/mL); in [29], 6.3 µM (≈ 8.32 µg/mL). For the same compound, the MIC in experiment [30] was determined as 6.3 µM (≈ 8.32 µg/mL).

Take `CC[C@H](C)[C@H](N)C(=O)N[C@H](C(=O)N[C@@H](CCCCN)C(=O)N[C@@H](CCCCN)C(=O)N[C@H](C(=O)N[C@H](C(=O)N[C@@H](CCCCN)C(=O)N[C@@H](CCCCN)C(=O)N[C@H](C(=O)N[C@H](C(=O)N[C@@H](CCCCN)C(=O)N[C@@H](CCCCN)C(N)=O)[C@@H](C)CC)[C@@H](C)CC)[C@@H](C)CC)[C@@H](C)CC)[C@@H](C)CC` [IIKKIIKKIIKK]: the minimal inhibitory concentration (MIC) against Bacillus subtilis 168 is 5 µM (≈ 7.33 µg/mL); against Candida albicans SC5314, not below 800 µM; in the experiment with Candida krusei ATCC 6258, not below 100 µM; in experiment [31], not below 1600 µM; in [32] it was not below 100 µM; in [33], 25 µM (≈ 36.6 µg/mL). Also, the MIC was determined as 30 µM (≈ 44 µg/mL) in the experiment on Escherichia coli BL21, 20 µM (≈ 29.3 µg/mL) in the experiment on Escherichia coli ESBL and 30 µM (≈ 44 µg/mL) with Staphylococcus aureus.
